Activity calls are given as the source filed them. The calls are words filed in the database; no cut-off is given here.
Key:
EMT6 [1] = assay: In vitro phototoxicity in EMT-6 cells at 1 uM after 6 hr MTT assay; format: functional, Mus musculus
EMT6 [2] = assay: In vitro phototoxicity in EMT-6 cells at 1 uM after 24 hr r MTT assay; format: functional, Mus musculus
[3] = biological target: Estrogen receptor (Homo sapiens) (UniProt Q92731+P03372); assay: Displacement of [3H]estradiol from estrogen receptor; format: protein assay; details: tested as the Zn salt or complex
EMT6 [4] = assay: In vitro phototoxicity in EMT-6 cells at 1 uM after 6 hr MTT assay; Not active; format: functional, cell-based; details: Mus musculus, tested as the Zn salt or complex
EMT6 [5] = assay: In vitro phototoxicity in EMT-6 cells at 1 uM after 24 hr r MTT assay; Not active; format: functional, cell-based; details: Mus musculus, tested as the Zn salt or complex

Structure (SMILES)	LD90 (EMT6 [1]) [J cm**-2]	LD90 (EMT6 [2]) [J cm**-2]	relative binding affinity (RBA) [3]	LD90 (EMT6 [4])	LD90 (EMT6 [5])
C[C@]12CC[C@@H]3c4ccc(O)cc4CC[C@H]3[C@@H]1CC[C@]2(O)CCCCC#CC#Cc1cccc2c1-c1nc-2nc2[nH]c(nc3nc(nc4[nH]c(n1)c1ccc(S(=O)(=O)[O-])cc41)-c1ccc(S(=O)(=O)[O-])cc1-3)c1ccc(S(=O)(=O)[O-])cc21.[Na+].[Na+].[Na+].[Zn]	12	4.3	0.56		
C[C@]12CC[C@@H]3c4ccc(O)cc4CC[C@H]3[C@@H]1CC[C@]2(O)C#Cc1ccc2c(c1)-c1nc-2nc2[nH]c(nc3nc(nc4[nH]c(n1)c1ccc(S(=O)(=O)[O-])cc41)-c1ccc(S(=O)(=O)[O-])cc1-3)c1cc(S(=O)(=O)[O-])ccc21.[Na+].[Na+].[Na+].[Zn]	7	5.1	1.64		
CCCCc1ccc2c(c1)-c1nc-2nc2[nH]c(nc3nc(nc4[nH]c(n1)c1ccc(CCCC)cc41)-c1ccc(C#CC#CCCCC[C@@]4(O)CC[C@H]5[C@@H]6CCc7cc(O)ccc7[C@H]6CC[C@@]54C)cc1-3)c1ccc(CCCC)cc21			3.08	inactive	inactive
C[C@]12CC[C@@H]3c4ccc(O)cc4CC[C@H]3[C@@H]1CC[C@]2(O)c1ccc(C#CC#Cc2ccc3c(c2)-c2nc-3nc3[nH]c(nc4nc(nc5[nH]c(n2)c2ccc(S(=O)(=O)[O-])cc52)-c2ccc(S(=O)(=O)[O-])cc2-4)c2ccc(S(=O)(=O)[O-])cc32)cc1.[Na+].[Na+].[Na+].[Zn]	10.4	5.3	1.22		
CCCCc1ccc2c(c1)-c1nc-2nc2[nH]c(nc3nc(nc4[nH]c(n1)c1ccc(CCCC)cc41)-c1ccc(C#CC#Cc4cccc([C@@]5(O)CC[C@H]6[C@@H]7CCc8cc(O)ccc8[C@H]7CC[C@@]65C)c4)cc1-3)c1ccc(CCCC)cc21			8.54	inactive	inactive
C[C@]12CC[C@@H]3c4ccc(O)cc4CC[C@H]3[C@@H]1CC[C@]2(O)C#Cc1cccc2cc3c(cc12)-c1nc-3nc2[nH]c(nc3nc(nc4[nH]c(n1)c1ccc(S(=O)(=O)[O-])cc41)-c1ccc(S(=O)(=O)[O-])cc1-3)c1cc(S(=O)(=O)[O-])ccc21.[Na+].[Na+].[Na+].[Zn]	12	3	1.24		
C[C@]12CC[C@@H]3c4ccc(O)cc4CC[C@H]3[C@@H]1CC[C@]2(O)c1cccc(C#CC#Cc2ccc3c(c2)-c2nc-3nc3[nH]c(nc4nc(nc5[nH]c(n2)c2ccc(S(=O)(=O)[O-])cc52)-c2ccc(S(=O)(=O)[O-])cc2-4)c2ccc(S(=O)(=O)[O-])cc32)c1.[Na+].[Na+].[Na+].[Zn]	10.4	4	0.3		
CCCCc1ccc2cc3c(cc2c1)-c1nc-3nc2[nH]c(nc3nc(nc4[nH]c(n1)c1cc5ccc(CCCC)cc5cc41)-c1ccc(C#C[C@@]4(O)CC[C@H]5[C@@H]6CCc7cc(O)ccc7[C@H]6CC[C@@]54C)cc1-3)c1cc3ccc(CCCC)cc3cc21			10.4	inactive	inactive
CCCCc1ccc2c(c1)-c1nc-2nc2[nH]c(nc3nc(nc4[nH]c(n1)c1ccc(CCCC)cc41)-c1ccc(C#C[C@@]4(O)CC[C@H]5[C@@H]6CCc7cc(O)ccc7[C@H]6CC[C@@]54C)cc1-3)c1ccc(CCCC)cc21			1.35	inactive	inactive
C[C@]12CC[C@@H]3c4ccc(O)cc4CC[C@H]3[C@@H]1CC[C@]2(O)CCCCC#CC#Cc1ccc2c(c1)-c1nc-2nc2[nH]c(nc3nc(nc4[nH]c(n1)c1ccc(S(=O)(=O)[O-])cc41)-c1ccc(S(=O)(=O)[O-])cc1-3)c1ccc(S(=O)(=O)[O-])cc21.[Na+].[Na+].[Na+].[Zn]	7.3	2.9	1.26		
CCCCc1ccc2c(c1)-c1nc-2nc2[nH]c(nc3nc(nc4[nH]c(n1)c1ccc(CCCC)cc41)-c1cccc(C#C[C@@]4(O)CC[C@H]5[C@@H]6CCc7cc(O)ccc7[C@H]6CC[C@@]54C)c1-3)c1ccc(CCCC)cc21			12.9	inactive	inactive

Reference: ChEMBL document CHEMBL1136680, “Synthesis and biological activities of phthalocyanine-estradiol conjugates” (2003)
